Data set [1] is described as follows: Reversal of P-gp-mediated resistance to doxorubicin in human SW620 cells assessed as reduction in doxorubin IC50 at 400 nM after 72 hrs by SRB assay. Particulars: SW-620, 72 h. In kind it is cell-based. Background: Sulforhodamine B stains cellular protein and so reports cell mass.
The subject of data set [2] is SW-620. The experiment in a line: Reversal of P-gp-mediated resistance assessed as ratio of doxorubicin IC50 for human SW620/AD300 cells to doxorubicin IC50 for human SW620 cells in presence of compound at 400 nM. The class given is cell-based.
Data set [3] is described as follows: Reversal of P-gp-mediated resistance to doxorubicin in human SW620/AD300 cells assessed as reduction in doxorubin IC50 at 400 nM after 72 hrs by SRB assay. The class given is cell-based. Conditions: SW620/AD300, 72 h.
Data set [4] can be described thus: Cytotoxicity against human H460 cells after 72 hrs by SRB assay. Conditions: NCI-H460, 72 h.
Data set [5] concerns NCI-H292. Briefly: Cytotoxicity against human NCI-H292 cells after 72 hrs by SRB assay. In kind it is functional, cell-based. Particulars: NCI-H292, 72 h.
Data set [6] can be described thus: Cytotoxicity against human H460/Vbl cells after 72 hrs by SRB assay.
A short description of data set [7]: Reversal of P-gp-mediated resistance to doxorubicin in human SW620/AD300 cells assessed as reduction in doxorubin IC50 at 10 uM after 72 hrs by SRB assay. In kind it is cell-based. Particulars: SW620/AD300, 72 h.
In data set [8] the test system is SW-620. Briefly: Ratio of IC50 for human SW620/AD300 cells to IC50 for human SW620 cells. In kind it is functional.
The next data set in a line: cells. Conditions: Homo sapiens, SW620/AD300, 72 h.
Data set [9] deals with SW-620. Briefly: cells. Particulars: Homo sapiens, SW-620, 72 h.
Description: Growth inhibition of human SW620 cells after 72 hrs by SRB assay
Data set [10] can be described thus: Reversal of P-gp-mediated resistance to doxorubicin in human SW620 cells assessed as reduction in doxorubin IC50 at 2 uM after 72 hrs by SRB assay. The class given is cell-based. Conditions: SW-620, 72 h.
Data set [11] concerns NCI-H460. The experiment in a line: Induction of apoptosis in human NCI-H460/Vbl cells at 10 uM after 24 hrs using annexin V by flow cytometry. The class given is functional, cell-based. On the technique in general: A flow cytometer gives signals particle by particle.
Data set [12] is described as follows: Reversal of P-gp-mediated resistance to cisplatin in human SW620/AD300 cells assessed as reduction in doxorubin IC50 at 10 uM after 72 hrs by SRB assay. In kind it is cell-based. Particulars: SW620/AD300, 72 h.
Data set [13] is described as follows: Reversal of P-gp-mediated resistance to doxorubicin in human SW620/AD300 cells assessed as reduction in doxorubin IC50 at 2 uM after 72 hrs by SRB assay. In kind it is cell-based. Conditions: SW620/AD300, 72 h.
Data set [14] has as its system NCI-H460. Briefly: Induction of apoptosis in human NCI-H460/Vbl cells at 10 uM after 24 hrs using annexin V by flow cytometry in presence of 1 uM gefitinib. In kind it is functional, cell-based.
For data set [15], the system named is NCI-H460. Briefly: Induction of apoptosis in human NCI-H460 cells at 10 uM after 24 hrs using annexin V by flow cytometry in presence of 1 uM gefitinib. The class given is functional, cell-based.
The target in data set [16] is T1, ATP-dependent translocase ABCB1 (Homo sapiens, UniProt P08183). The experiment in a line: Inhibition of P-gp in human SW620/AD300 cells assessed as reduction in rhodamine 123 efflux at 50 uM by flow cytometry. Particulars: sw620/ad300, 50 µM. In kind it is cell-based.
T1 sequence (P08183 whole entry): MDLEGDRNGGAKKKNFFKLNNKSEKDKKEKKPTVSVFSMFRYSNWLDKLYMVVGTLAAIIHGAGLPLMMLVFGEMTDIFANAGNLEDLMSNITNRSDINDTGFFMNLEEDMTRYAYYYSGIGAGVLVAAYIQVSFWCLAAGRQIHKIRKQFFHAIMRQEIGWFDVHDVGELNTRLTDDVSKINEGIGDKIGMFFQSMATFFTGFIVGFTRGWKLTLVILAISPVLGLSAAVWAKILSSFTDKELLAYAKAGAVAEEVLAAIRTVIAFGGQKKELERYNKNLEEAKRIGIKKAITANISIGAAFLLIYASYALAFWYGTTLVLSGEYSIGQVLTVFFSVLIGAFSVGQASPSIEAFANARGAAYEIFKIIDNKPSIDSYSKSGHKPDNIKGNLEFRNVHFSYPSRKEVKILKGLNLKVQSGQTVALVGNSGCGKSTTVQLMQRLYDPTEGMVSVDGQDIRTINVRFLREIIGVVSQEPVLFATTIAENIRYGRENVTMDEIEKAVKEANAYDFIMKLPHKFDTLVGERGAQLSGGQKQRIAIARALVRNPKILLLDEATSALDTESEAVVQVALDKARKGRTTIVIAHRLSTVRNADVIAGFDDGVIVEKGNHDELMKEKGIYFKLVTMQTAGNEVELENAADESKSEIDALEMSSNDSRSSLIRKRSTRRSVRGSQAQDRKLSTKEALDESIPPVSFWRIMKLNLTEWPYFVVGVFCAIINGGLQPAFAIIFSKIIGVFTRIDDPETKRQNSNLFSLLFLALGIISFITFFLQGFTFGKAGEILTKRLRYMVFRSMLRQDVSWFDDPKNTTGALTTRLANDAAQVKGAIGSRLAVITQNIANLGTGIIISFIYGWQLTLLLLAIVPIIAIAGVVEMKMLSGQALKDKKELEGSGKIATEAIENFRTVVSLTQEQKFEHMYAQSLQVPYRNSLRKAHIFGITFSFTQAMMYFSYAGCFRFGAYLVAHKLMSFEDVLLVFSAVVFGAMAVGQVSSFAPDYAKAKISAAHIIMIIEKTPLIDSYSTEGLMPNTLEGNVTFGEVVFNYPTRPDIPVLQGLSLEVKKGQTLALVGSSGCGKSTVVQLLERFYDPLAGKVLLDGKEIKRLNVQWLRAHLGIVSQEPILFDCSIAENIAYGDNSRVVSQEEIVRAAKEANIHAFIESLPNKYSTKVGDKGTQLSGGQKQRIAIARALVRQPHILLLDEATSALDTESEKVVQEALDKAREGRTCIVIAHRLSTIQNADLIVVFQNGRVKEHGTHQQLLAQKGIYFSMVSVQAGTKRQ
Data set [17] can be described thus: Reversal of P-gp-mediated resistance to cisplatin in human SW620 cells assessed as reduction in doxorubin IC50 at 10 uM after 72 hrs by SRB assay. In kind it is cell-based. Particulars: SW-620, 72 h.
A short description of data set [18]: Reversal of P-gp-mediated resistance to cisplatin in human SW620/AD300 cells assessed as reduction in doxorubin IC50 at 2 uM after 72 hrs by SRB assay. The class given is cell-based. Particulars: SW620/AD300, 72 h.
The subject of data set [19] is NCI-H292. The experiment in a line: Induction of apoptosis in human NCI-H292 cells at 10 uM after 24 hrs using annexin V by flow cytometry in presence of 1 uM gefitinib. In kind it is functional, cell-based.
In data set [20] the test system is NCI-H460. Briefly: Induction of apoptosis in human NCI-H460 cells at 10 uM after 24 hrs using annexin V by flow cytometry. In kind it is functional, cell-based.
Data set [21] deals with NCI-H292. Briefly: Induction of apoptosis in human NCI-H292 cells at 10 uM after 24 hrs using annexin V by flow cytometry. The class given is functional, cell-based.
The nature of data set [22]: Reversal of P-gp-mediated resistance to cisplatin in human SW620 cells assessed as reduction in doxorubin IC50 at 2 uM after 72 hrs by SRB assay. Particulars: SW-620, 72 h. In kind it is cell-based.
Data set [23] concerns the target T1, ATP-dependent translocase ABCB1. The experiment in a line: Inhibition of P-gp in human SW620/AD300 cells assessed as reduction in rhodamine 123 efflux by flow cytometry. In kind it is cell-based.

Each structure is given as a SMILES string. Active and inactive are the calls of the source. The calls are words filed in the database; no cut-off is given here.

As usually defined, the IC50 is the midpoint of a concentration-inhibition curve. For the molecule `C/C=C/C[C@@H](C)C(=O)[C@H]1C(=O)N[C@@H](C(C)C)C(=O)N(C)CC(=O)N(C)[C@@H](CC(C)C)C(=O)N[C@@H](C(C)C)C(=O)N(C)[C@@H](CC(C)C)C(=O)N[C@@H](C)C(=O)N[C@H](C)C(=O)N(C)[C@@H](CC(C)C)C(=O)N(C)[C@@H](CC(C)C)C(=O)N(C)[C@@H](C(C)C)C(=O)N1C` [VALSPODAR], the IC50 in data set [1] is 0.1 µM; in data set [3] it was 0.22 µM. For the same molecule, in the data set with SW-620 [2], the Ratio IC50 is 2.

For `C#Cc1cccc(Nc2ncnc3cc(OCCOC)c(OCCOC)cc23)c1` [ERLOTINIB], the IC50 in data set [4] stood at 9.5 µM; with NCI-H292 [5], 1 µM; in [6], 21.5 µM.

For `CO[C@H]1[C@@H](O)[C@H](O[C@@H]2[C@@H](C)O[C@@H](O[C@H]3CC[C@@]4(C)[C@@H](CC[C@@]56O[C@@]57CC[C@H](C(C)=O)[C@@]7(C)[C@H](O)[C@@H](O)[C@H]46)C3)C[C@H]2OC)O[C@H](C)[C@H]1O[C@@H]1O[C@H](CO)[C@@H](O)[C@H](O)[C@H]1O`, the half-inhibitory concentration (IC50) in data set [7] was 24.8 µM.

`CO[C@H]1[C@@H](O)[C@H](O[C@@H]2[C@@H](C)O[C@@H](O[C@H]3CC[C@@]4(C)[C@@H](CC[C@@]56O[C@@]57CC[C@H](C(C)=O)[C@@]7(C)[C@H](O)[C@@H](OC(=O)c5ccccc5)[C@H]46)C3)C[C@H]2OC)O[C@H](C)[C@H]1O`: in [7], the IC50 is 23.4 µM.

With `COc1cccc2c1C(=O)c1c(O)c3c(c(O)c1C2=O)C[C@@](O)(C(=O)CO)C[C@@H]3O[C@H]1C[C@H](N)[C@H](O)[C@H](C)O1` [DOXORUBICIN], in the data set with SW-620 [8], the “Ratio IC50” value was determined as 166. The half-inhibitory concentration (IC50) in the data set “cells” came to 28.2 µM; with SW-620 [9], 0.17 µM.

In the case of `CCC(C)C(=O)O[C@@H]1[C@@H](OC(C)=O)[C@]2(C)[C@@H](C(C)=O)CC[C@@]23O[C@]32CC[C@H]3CC(=O)CC[C@]3(C)[C@@H]12` (stereo not given in full), the IC50 in data set [10] amounted to 0.11 µM; in [12] it was 10.2 µM; in data set [13], 2.1 µM; in data set [7] it was 0.85 µM; in [17], 9.4 µM; in data set [18], 12 µM. For the same molecule, in data set [22], the half-inhibitory concentration (IC50) came out at 11.5 µM. The result with NCI-H460 [11], in the data set with NCI-H460 [20] and with NCI-H292 [21] was inactive. Moreover, the result in the data set on NCI-H460 [14], in the data set on NCI-H460 [15] and with NCI-H292 [19] was Active. The “inhibition (INH)” value in data set [16] is “Active”; in data set [23], “Dose-dependent effect”.

On to `CO[C@H]1[C@@H](O)[C@H](O[C@@H]2[C@@H](C)O[C@@H](O[C@H]3CC[C@@]4(C)[C@@H](CC[C@@]56O[C@@]57CC[C@H](C(C)=O)[C@@]7(C)[C@H](O)[C@@H](OC(C)=O)[C@H]46)C3)C[C@H]2OC)O[C@H](C)[C@H]1O`, for which, in data set [7], the IC50 came to 23.4 µM.

For `C/C=C(\C)C(=O)O[C@@H]1[C@@H](O)[C@]2(C)[C@@H](C(C)=O)CC[C@@]23O[C@]32CC[C@H]3C[C@@H](O[C@H]4C[C@@H](OC)[C@H](O[C@@H]5O[C@H](C)[C@@H](O)[C@@H](OC)[C@H]5O)[C@@H](C)O4)CC[C@]3(C)[C@@H]12`, the IC50 in [7] was 25.6 µM.

For `CO[C@H]1[C@@H](O)[C@H](O[C@@H]2[C@@H](C)O[C@@H](O[C@H]3CC[C@@]4(C)[C@@H](CC[C@@]56O[C@@]57CC[C@H](C(C)=O)[C@@]7(C)[C@H](OC(C)=O)[C@@H](OC(=O)c5ccccc5)[C@H]46)C3)C[C@H]2OC)O[C@H](C)[C@H]1O[C@@H]1O[C@H](CO)[C@@H](O[C@@H]2O[C@H](CO)[C@@H](O)[C@H](O)[C@H]2O)[C@H](O)[C@H]1O`, the IC50 in data set [7] came out at 26.8 µM.

As for `C/C=C(\C)C(=O)O[C@@H]1[C@@H](O)[C@]2(C)[C@@H](C(C)=O)CC[C@@]23O[C@]32CC[C@H]3C[C@@H](O[C@H]4C[C@@H](OC)[C@H](O[C@@H]5O[C@H](C)[C@@H](O[C@@H]6O[C@H](CO)[C@@H](O)[C@H](O)[C@H]6O)[C@@H](OC)[C@H]5O)[C@@H](C)O4)CC[C@]3(C)[C@@H]12`, the 50% inhibitory concentration (IC50) in [7] came out at 23.9 µM.
